Reference: US20220340983A1, “SYSTEMS AND ASSAYS FOR IDENTIFYING PU.1 INHIBITORS” (Massachustts Institute of Technology, priority 2019, published 2022)

Test system: iPS and ES-microglia
Test: Average cell size (Vybrant DiI-positive surface area per Hoechst-positive cell) in microglia
Format: cell-based, human
Settings: A11 alone ≤20 nM
Method: Top row: Effect of a 2-day treatment with DPBS (10 μL/mL), IFNγ (25 ng/mL), TNFα (25 ng/mL), TGFβ (25 ng/mL), IL1β (25 ng/mL), LPS (25 ng/mL), ATP (100 nM), CD200 (100 ng/mL), IFNα (25 ng/mL), IL12 (5 ng/mL), CX3CL1 (100 ng/mL), CCL5 (100 ng/mL), PMA (10 ng/mL), IFNβ (10 ng/mL), IL33 (10 ng/mL), and IL4 (100 ng/mL). n=52 for DPBS, n=9 for all other inflammatory molecules, except IL33 where n=3. Bottom row: effect after co-application with A11 (20 nM). Scale bar 10 μm. […] Student's unpaired, two sided t-test, ****P≤0.0001, ***P≤0.001, **P≤0.01, *P≤0.05. […] Top row: An increase in number of cells per well with ≥2 BODIPY-positive structures was observed after a 2-day treatment with IFNγ (25 ng/mL), TNFα (25 ng/mL) and IL33 (10 ng/mL) as compared to DPBS treatment. […] Student's unpaired, two-sided t-test, ***P≤0.001, **P≤0.01, *P≤0.05. […] A 2-day treatment with IFNγ (25 ng/mL) caused increase in ATP levels that was reversed by A11 (20 nM) treatment in iPS (left panel) and ES-microglia (right panel). Student's unpaired, twosided t-test, **P≤0.01. […]
FIGS. 17A-17H show results from comparing the effects of multiple inflammatory molecules in iPS-microglia. […] Quantification based on total Vybrant DiI-positive surface area divided by number of Hoechst positive cells per field of view. […]

## O=S(=O)(NCc1ccncc1)c1ccc(C2CCCCC2)cc1 [Compound A11]
  average cell size versus DPBS treatment: no effects
